Where “and” joins values, the source holds several entries; their conditions need not be identical. Equal entries are not always repeated. Where two headings read alike, the source gives them in different places.
System: mtrC-lacZ expression
Type: cell-based, Neisseria gonorrhoeae
Details: for mtrC-lacZ β-galactosidase activity, Mean: left block of sheet (mtrCDE); for β-galactosidase activity, Mean: second (right) untitled block of sheet Figure S10 (mtrC); for β-galactosidase activity, mtrC-lacZ, Mean: strain ΔmtrR + mtrR WT (pGCC3-mtrR); for Plate-6 (Testosterone) Miller units, Mean: upper four plate rows; for Miller units, Mean: right block Plate-4
[1] = strain ΔmtrR + mtrR R176E, 50 µM hormone
[2] = strain ΔmtrR + mtrR WT, 25 µM hormone
[3] = strain ΔmtrR + mtrR WT, 50 µM hormone

C[C@]12CC[C@H]3[C@@H](CCC4=CC(=O)CC[C@@]43C)[C@@H]1CC[C@@H]2O [Testosterone, testosterone]
mtrC-lacZ β-galactosidase activity, Mean [1]: 224 Miller units | β-galactosidase activity, Mean [1]: 83 Miller units | mtrC-lacZ β-galactosidase activity, Mean (strain ΔmtrR + mtrR R176E, 100 µM hormone): 238 Miller units | β-galactosidase activity, mtrC-lacZ, Mean (hormone 6.25 µM): 125 Miller units | β-galactosidase activity, mtrC-lacZ, Mean (hormone 12.5 µM): 130 Miller units | β-galactosidase activity, mtrC-lacZ, Mean (hormone 25 µM): 133 Miller units | β-galactosidase activity, mtrC-lacZ, Mean (hormone 50 µM): 152 Miller units | mtrC-lacZ β-galactosidase activity, Mean (strain ΔmtrR + mtrR WT, 1 µM hormone): 107 Miller units | β-galactosidase activity, Mean (strain ΔmtrR + mtrR WT, 6.25 µM hormone): 45 Miller units | mtrC-lacZ β-galactosidase activity, Mean (strain ΔmtrR + mtrR WT, 10 µM hormone): 177 Miller units | β-galactosidase activity, Mean (strain ΔmtrR + mtrR WT, 12.5 µM hormone): 50 Miller units | mtrC-lacZ β-galactosidase activity, Mean [2]: 181 Miller units | β-galactosidase activity, Mean [2]: 70 Miller units | mtrC-lacZ β-galactosidase activity, Mean [3]: 213 Miller units | β-galactosidase activity, Mean [3]: 74 Miller units | mtrC-lacZ β-galactosidase activity, Mean (strain ΔmtrR + mtrR WT, 100 µM hormone): 227 Miller units | mtrC-lacZ β-galactosidase activity, Mean (strain ΔmtrR, 1 µM hormone): 334 Miller units | β-galactosidase activity, Mean (strain ΔmtrR, 6.25 µM hormone): 146 Miller units | mtrC-lacZ β-galactosidase activity, Mean (strain ΔmtrR, 10 µM hormone): 358 Miller units | β-galactosidase activity, Mean (strain ΔmtrR, 12.5 µM hormone): 153 Miller units | β-galactosidase activity, Mean (strain ΔmtrR, 25 µM hormone): 155 Miller units | mtrC-lacZ β-galactosidase activity, Mean (strain ΔmtrR, 50 µM hormone): 284 Miller units | β-galactosidase activity, Mean (strain ΔmtrR, 50 µM hormone): 141 Miller units | mtrC-lacZ β-galactosidase activity, Mean (strain ΔmtrR, 100 µM hormone): 369 Miller units | Plate-6 (Testosterone) Miller units, Mean (testosterone 6.25 µM, plate column 3): 69 Miller units | Plate-6 (Testosterone) Miller units, Mean (testosterone 6.25 µM, plate column 9 (second strain set, columns 7-12)): 96 Miller units | Plate-6 (Testosterone) Miller units, Mean (testosterone 12.5 µM, plate column 4): 81 Miller units | Plate-6 (Testosterone) Miller units, Mean (testosterone 12.5 µM, plate column 10 (second strain set, columns 7-12)): 102 Miller units | Plate-6 (Testosterone) Miller units, Mean (testosterone 25 µM, plate column 5): 98 Miller units | Plate-6 (Testosterone) Miller units, Mean (testosterone 25 µM, plate column 11 (second strain set, columns 7-12)): 112 Miller units | Plate-6 (Testosterone) Miller units, Mean (testosterone 50 µM, plate column 6): 117 Miller units | Plate-6 (Testosterone) Miller units, Mean (testosterone 50 µM, plate column 12 (second strain set, columns 7-12)): 119 Miller units | Miller units, Mean (third strain (lower plate half, wells 1-6; not named), testosterone 6.25 µM): 45 Miller units | Miller units, Mean (third strain (lower plate half, wells 1-6; not named), testosterone 12.5 µM): 50 Miller units | Miller units, Mean (third strain (lower plate half, wells 1-6; not named), testosterone 25 µM): 70 Miller units | Miller units, Mean (third strain (lower plate half, wells 1-6; not named), testosterone 50 µM): 74 Miller units | Miller units, Mean (ΔmtrR (by plate layout), testosterone 6.25 µM): 146 Miller units | Miller units, Mean (ΔmtrR (by plate layout), testosterone 12.5 µM): 153 Miller units | Miller units, Mean (ΔmtrR (by plate layout), testosterone 25 µM): 155 Miller units | Miller units, Mean (ΔmtrR (by plate layout), testosterone 50 µM): 141 Miller units | β-galactosidase activity, Miller units (single replicate) (ΔmtrR + mtrR WT in trans, 1 µM, first data set (c15-c36)): 95 Miller units and 106 Miller units | β-galactosidase activity, Miller units (single replicate) (ΔmtrR + mtrR WT in trans, 6.25 µM, second data set (c53-c74)): 36 Miller units and 39 Miller units and 65 Miller units and 38 Miller units | β-galactosidase activity, Miller units (single replicate) (ΔmtrR + mtrR WT in trans, 10 µM, first data set (c15-c36)): 167 Miller units and 179 Miller units | β-galactosidase activity, Miller units (single replicate) (ΔmtrR + mtrR WT in trans, 12.5 µM, second data set (c53-c74)): 52 Miller units and 40 Miller units and 64 Miller units and 45 Miller units | β-galactosidase activity, Miller units (single replicate) (ΔmtrR + mtrR WT in trans, 25 µM, first data set (c15-c36)): 181 Miller units and 185 Miller units | β-galactosidase activity, Miller units (single replicate) (ΔmtrR + mtrR WT in trans, 25 µM, second data set (c53-c74)): 72 Miller units and 60 Miller units and 77 Miller units | β-galactosidase activity, Miller units (single replicate) (ΔmtrR + mtrR WT in trans, 50 µM, first data set (c15-c36)): 185 Miller units and 193 Miller units | β-galactosidase activity, Miller units (single replicate) (ΔmtrR + mtrR WT in trans, 50 µM, second data set (c53-c74)): 89 Miller units and 62 Miller units and 81 Miller units and 65 Miller units | β-galactosidase activity, Miller units (single replicate) (ΔmtrR + mtrR WT in trans, 100 µM, first data set (c15-c36)): 195 Miller units and 175 Miller units | β-galactosidase activity, Miller units (single replicate) (ΔmtrR, 1 µM, first data set (c15-c36)): 360 Miller units and 326 Miller units and 318 Miller units | β-galactosidase activity, Miller units (single replicate) (ΔmtrR, 6.25 µM, second data set (c53-c74)): 213 Miller units and 147 Miller units and 123 Miller units and 100 Miller units | β-galactosidase activity, Miller units (single replicate) (ΔmtrR, 10 µM, first data set (c15-c36)): 393 Miller units and 347 Miller units and 355 Miller units and 336 Miller units | β-galactosidase activity, Miller units (single replicate) (ΔmtrR, 12.5 µM, second data set (c53-c74)): 202 Miller units and 175 Miller units and 120 Miller units and 117 Miller units | β-galactosidase activity, Miller units (single replicate) (ΔmtrR, 25 µM, first data set (c15-c36)): 325 Miller units and 289 Miller units and 330 Miller units and 304 Miller units | β-galactosidase activity, Miller units (single replicate) (ΔmtrR, 25 µM, second data set (c53-c74)): 194 Miller units and 180 Miller units and 119 Miller units and 125 Miller units | β-galactosidase activity, Miller units (single replicate) (ΔmtrR, 50 µM, first data set (c15-c36)): 298 Miller units and 287 Miller units and 282 Miller units and 269 Miller units | β-galactosidase activity, Miller units (single replicate) (ΔmtrR, 50 µM, second data set (c53-c74)): 175 Miller units and 157 Miller units and 99 Miller units | β-galactosidase activity, Miller units (single replicate) (ΔmtrR, 100 µM, first data set (c15-c36)): 429 Miller units and 358 Miller units and 309 Miller units and 379 Miller units

From article PMC10850145, “Hormonal steroids induce multidrug resistance and stress response genes in Neisseria gonorrhoeae by binding to MtrR” (Nature Communications, 2024)
